Assay results reported in patent US20240238426A1, “PROTEIN ACYLATION MODULATION BY HETEROBIFUNCTIONAL MOLECULES” (THE SCRIPPS RESEARCH INSTITUTE, priority 2021, published 2024).

Tested on: H3.3-FKBP12^F36V HeLa cells
Test: Quantitative acetylproteomics of H3.3-FKBP12^F36V HeLa cells
Assay type: cell-based, Human
Description: Sample preparation: Frozen cell pellets were thawed on ice and lysed in a buffer containing 50 mM Tris-HCl (pH 7.5), 150 mM NaCl, 1 mM EDTA, 1% NP-40, 0.1% sodium deoxycholate, 5 mM sodium butyrate, 10 mM nicotinamide and 1X Pierce™ protease inhibitor cocktail. Cells were sonicated to ensure complete lysis, mixed with 5 M NaCl at a ratio of 1:10 with sample volume and incubated on ice for 15 min to release chromatin-bound proteins. Cell lysates were then sonicated again to shear genomic DNA. Cellular debris was cleared by centrifugation at 16,000 g for 20 min at 4° C., protein concentration was determined using a Pierce™ BCA assay and ˜10 mg of protein was aliquoted for acetyl-proteomic analysis. Proteins were denatured with 8 M urea in 50 mM HEPES, reduced with 5 mM dithiothreitol for 30 min at 56° C., then alkylated with 5 mM iodoacetamide for 20 min in the dark at RT. Following alkylation, proteins were precipitated using chloroform-methanol as previously described, and protein pellets were dried at 56° C. for 15 min. Proteins pellets were resuspended in 1 M urea in 50 mM HEPES and digested in a two-step process with LysC and trypsin as previously described. Digested peptides were desalted using Phenomenex Strata-X polymeric reverse phase extraction cartridges using the following protocol. Cartridges were conditioned with 1 mL 100% acetonitrile, 1 mL 80% acetonitrile/0.5% AA, and 1 mL 0.1% TFA. Peptides were then loaded on to the cartridge at a reduced flow rate and desalted with 5 mL 0.1% TFA followed by 1 mL 0.5% AA. Desalted peptides were eluted using 1 mL 40% acetonitrile/0.5% AA followed by 1 mL 80% acetonitrile/0.5% AA and lyophilized. Digested peptides were quantified using the Pierce™ Quantitative Colorimetric Peptide Assay and […] was aliquoted from each for total protein analysis while the remaining peptide was lyophilized and retained for acetyl-peptide enrichment.
Acetyl-peptide Enrichment: Acetyl-peptides were enriched using the PTMScan® Acetyl-Lysine Motif [Ac-K] Kit according to manufacturer instructions. […]

CC[C@H](C(=O)N1CCCC[C@H]1C(=O)O[C@H](CCc1ccc(OC)c(OC)c1)c1cccc(OCC(=O)NCCOCCOCCC(=O)NCCOc2ccc(CCc3nc4cc(-c5c(C)noc5C)ccc4n3CCN3CCOCC3)cc2)c1)c1cc(OC)c(OC)c(OC)c1 [AceTAG-1, (R)-3-(3,4-dimethoxyphenyl)-1-(3-((15-(4-(2-(5-(3,5-dimethylisoxazol-4-yl)-1-(2-morpholinoethyl)-1H-benzo[d]imidazol-2-yl)ethyl)phenoxy)-2,12-dioxo-6,9-dioxa-3,13-diazapentadecyl)oxy)phenyl)propyl (S)-1-((S)-2-(3,4,5-trimethoxyphenyl)butanoyl)piperidine-2-carboxylate]
changes in acetylation of detected proteins relative to DMSO (600 nM AceTAG, FIG. 5D): no substantial changes in acetylation of any detected protein
endogenous histone lysine acetylation, including H3.3 (AceTAG treatment, FIG. 9C): no substantial changes
